Data on one molecule can be found in US10953011B2, “Methods of treating virally associated cancers with histone deacetylase inhibitors” (priority 2019, dated 2021).

One assay has as its system HDAC 1-3. Particulars: descriptive statement; cited from earlier work.
The target of the next assay is T1, HDAC11 (Homo sapiens, UniProt Q96DB2).
T1 sequence (Q96DB2 1-347): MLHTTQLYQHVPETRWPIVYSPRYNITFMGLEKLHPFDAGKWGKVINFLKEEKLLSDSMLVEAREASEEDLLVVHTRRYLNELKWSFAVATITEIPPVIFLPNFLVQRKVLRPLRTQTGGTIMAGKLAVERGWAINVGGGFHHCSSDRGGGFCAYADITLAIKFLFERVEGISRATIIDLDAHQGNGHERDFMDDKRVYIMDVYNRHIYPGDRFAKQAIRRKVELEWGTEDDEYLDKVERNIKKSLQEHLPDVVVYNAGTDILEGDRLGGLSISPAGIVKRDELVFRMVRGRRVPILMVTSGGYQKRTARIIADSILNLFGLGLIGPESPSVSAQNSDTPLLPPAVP
The experiment in a line: in vitro HDAC inhibition assay (fluorescence). The class given is biochemical. Particulars: 1 h pre-incubation; 2 μM HDAC Substrate Class 2a; read-out: IC50 (μM) HDAC11. Here is the method:
(§1) Briefly, all of the compounds are dissolved in DMSO. A series of dilutions of the compounds were prepared with 10% DMSO in HDAC assay buffer and 5 μl of the dilution was added to a 50 μl reaction so that the final concentration of DMSO is 1% in all of reactions. The compounds were pre-incubated in duplicate at RT for 1 hour in a mixture containing HDAC assay buffer, 5 μg BSA, HDAC enzyme (see Table 7) and a the particular HDACi. After 1 hour, the enzymatic reactions were initiated by the addition of HDAC substrate (BPS Bioscience) to a final concentration of 10 μM or 2 μM. The enzymatic reaction proceeded for 30 minutes at 37° C.
(§2) HDAC activity assays were performed in duplicates at each concentration. The fluorescent intensity data were analyzed using the computer software, Graphpad Prism. In the absence of the compound, the fluorescent intensity (Ft) in each data set was defined as 100% activity. In the absence of HDAC, the fluorescent intensity (Fb) in each data set was defined as 0% activity. The percent activity in the presence of each compound was calculated according to the following equation: % activity=(F−Fb)/(Ft−Fb), where F=the fluorescent intensity in the presence of the compound.
(§3) The values of % activity versus a series of compound concentrations were then plotted using non-linear regression analysis of Sigmoidal dose-response curve generated with the equation Y=B+(T−B)/1+10^((Log EC50-X)×Hill Slope), where Y=percent activity, B=minimum percent activity, T=maximum percent activity, X=logarithm of compound and Hill Slope=slope factor or Hill coefficient. The IC50 value was determined by the concentration causing a half-maximal percent activity.

A further assay concerns the target T2, HDAC7 (Homo sapiens, UniProt Q8WUI4).
T2 sequence (Q8WUI4 1-952): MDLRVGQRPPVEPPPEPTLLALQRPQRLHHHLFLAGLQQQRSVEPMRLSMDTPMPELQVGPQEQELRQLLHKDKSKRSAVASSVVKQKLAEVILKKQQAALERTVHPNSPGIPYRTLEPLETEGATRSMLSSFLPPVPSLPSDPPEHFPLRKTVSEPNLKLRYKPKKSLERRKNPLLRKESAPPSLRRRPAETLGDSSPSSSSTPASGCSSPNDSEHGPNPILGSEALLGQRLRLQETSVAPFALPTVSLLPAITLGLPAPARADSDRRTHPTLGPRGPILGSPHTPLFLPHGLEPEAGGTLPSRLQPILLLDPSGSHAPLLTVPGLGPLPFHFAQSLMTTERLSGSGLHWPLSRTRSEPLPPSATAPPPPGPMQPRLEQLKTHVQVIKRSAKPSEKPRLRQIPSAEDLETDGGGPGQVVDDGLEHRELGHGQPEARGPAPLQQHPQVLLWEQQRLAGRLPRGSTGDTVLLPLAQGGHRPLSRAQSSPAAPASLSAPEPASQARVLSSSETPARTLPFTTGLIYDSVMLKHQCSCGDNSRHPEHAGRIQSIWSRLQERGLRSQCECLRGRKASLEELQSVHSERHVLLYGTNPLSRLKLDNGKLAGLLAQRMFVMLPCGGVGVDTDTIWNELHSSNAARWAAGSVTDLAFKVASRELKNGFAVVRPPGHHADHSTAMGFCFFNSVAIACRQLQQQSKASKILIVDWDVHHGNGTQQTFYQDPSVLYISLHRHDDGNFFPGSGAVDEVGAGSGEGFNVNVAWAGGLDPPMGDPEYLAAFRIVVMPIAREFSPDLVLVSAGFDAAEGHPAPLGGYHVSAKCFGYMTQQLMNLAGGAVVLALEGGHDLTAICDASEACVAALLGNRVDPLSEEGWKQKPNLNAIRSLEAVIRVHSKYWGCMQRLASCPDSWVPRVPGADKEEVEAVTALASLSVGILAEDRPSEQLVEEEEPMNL
The experiment in a line: in vitro HDAC inhibition assay (fluorescence). The class given is biochemical. Particulars: 1 h pre-incubation; 2 μM HDAC Substrate Class 2a; read-out: IC50 (μM) HDAC7. As for the experimental part:
as §1, §2, §3

The next assay has as its target T3, HDAC8 (Homo sapiens, UniProt Q9BY41).
T3 sequence (Q9BY41 1-377): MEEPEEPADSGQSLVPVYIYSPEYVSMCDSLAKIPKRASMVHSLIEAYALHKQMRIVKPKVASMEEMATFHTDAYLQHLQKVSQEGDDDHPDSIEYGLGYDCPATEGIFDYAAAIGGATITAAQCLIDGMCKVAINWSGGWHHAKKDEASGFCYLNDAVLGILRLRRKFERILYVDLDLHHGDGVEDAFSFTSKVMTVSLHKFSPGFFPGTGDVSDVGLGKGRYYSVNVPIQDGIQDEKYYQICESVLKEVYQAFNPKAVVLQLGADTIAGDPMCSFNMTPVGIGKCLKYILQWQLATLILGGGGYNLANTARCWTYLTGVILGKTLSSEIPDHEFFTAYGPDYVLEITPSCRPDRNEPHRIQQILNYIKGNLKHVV
The experiment in a line: biochemical. Here is the method:
as §1
HDAC activity assays were performed in duplicates at each concentration. The fluorescent intensity data were analyzed using the computer software, Graphpad Prism. In the absence of the compound, the fluorescent intensity (Ft) in each data set was defined as 100% activity. In the absence of HDAC, the fluorescent intensity (Fb) in each data set was defined as 0% activity. The percent activity in the presence of each compound was calculated according to the following equation: % activity=(F−Fb)/(Ft−Fb), where F=the fluorescent intensity in the presence of the compound. […]

Broadly, the IC50 is the midpoint of a concentration-inhibition curve. For `O=C(NO)c1cnc(N2C[C@@H]3[C@H](C2)[C@H]3NCc2ccc3cc(F)ccc3n2)nc1` [Nanatinostat, 2-((1R,5S,6s)-6-(((6-fluoroquinolin-2-yl)methyl)amino)-3-azabicyclo[3.1.0]hexan-3-yl)-N-hydroxypyrimidine-5-carboxamide], the “Activity against HDAC 1-3” value in the assay on HDAC 1-3 is listed as “active against HDAC 1-3”. Besides, the IC50 was determined as 2.8 µM on HDAC11, 1.6 µM at HDAC7 and 0.86 µM on HDAC8.
